Among the data in patent publication US20050048007A1, “Plaque reducing composition” (INOBYS LTD., priority 2000, published 2005) are MIC values, retold here.

What all share (test): MIC by serial dilutions in BHI broth (NCCLS)
What all share (type): cell-based

One assay has as its system S. sobrinus. The conditions noted are these: Streptococcus sobrinus, 37.5 degrees C., 24 hr, turbidity. The text has this: (§1) Efficacy of this delivery system was shown as follows: 1. Minimum Inhibitory Concentration (MIC)
(§2) High numbers of microorganisms inhabit the oral cavity. Aerobic and anerobic bacteria combine to produce plaque, the soft sticky film adhering to the surface of the teeth. These same bacteria produce sulfur compounds responsible for oral malodor. MIC studies are commonly used to evaluate the potential effectiveness of oral washes and rinses in reducing undesirable bacteria in the oral cavity.
(§3) This […] study evaluates and compares the minimum inhibitory concentration at which two antimicrobial preparations (Solutions A & B) prevent the growth of oral microorganisms recognized as typical of those responsible for plaque and oral malodor formation. Solution A represents Example 1 (above); solution B, 0.1% chlorhexidine, represents a bench mark for efficacy, in that it is commonly accepted and used by oral care professionals to reduce plaque and malodor causing microbes.
(§4) MICs were established using the method of serial dilutions in BHI broth as established by NCCLS (National Committee for Clinical Laboratory Standards). Viable isolates of select strains of oral microbes were obtained commercially and cultured for ongoing use in the study. Serial dilutions of each of the test solutions were added to test tubes containing cultures of each isolate in BHI broth. Tubes were incubated at 37.5 degrees C. for 24 hr. and evaluated for signs of microbial growth (turbidity). Blank tubes of BHI broth, with and without microbial inoculates, were concomitantly run as a control for process sterility and viability.

Another assay deals with S. mutans. The conditions noted are these: Streptococcus mutans, 37.5 degrees C., 24 hr, turbidity.
Excerpt: as §1, §2, §3, §4

In the next assay the test system is V. atypica. The settings on record: 37.5 degrees C., 24 hr, turbidity.
Excerpt: as §1, §2, §3, §4

Another assay relates to K. pneumonia. The conditions noted are these: Klebsiella pneumoniae, 37.5 degrees C., 24 hr, turbidity.
Excerpt: as §1, §2, §3, §4

For a further assay, the system named is A. viscosus. The settings on record: Actinomyces viscosus, 37.5 degrees C., 24 hr, turbidity.
Excerpt: as §1, §2, §3, §4

A further assay deals with S. sanguinis. The conditions noted are these: Streptococcus sanguinis, 37.5 degrees C., 24 hr, turbidity.
Excerpt: as §1, §2, §3, §4

Values after ≈ are worked out from the molar mass of the structure shown.

As for `[H]/N=C(\N/C(=N/[H])NCCCCCCNC(=N)NC(=N)Nc1ccc(Cl)cc1)Nc1ccc(Cl)cc1` [0.1% CHX, chlorhexidine], the MIC (usually the least concentration at which growth counts as inhibited) against S. sobrinus is 80 µg/mL (≈ 158 µM); against S. mutans, 320 µg/mL (≈ 633 µM); against V. atypica, 160 µg/mL (≈ 317 µM); with K. pneumonia, 650 µg/mL (≈ 1290 µM); against A. viscosus, 320 µg/mL (≈ 633 µM); in the assay on S. sanguinis, 80 µg/mL (≈ 158 µM).
